Assay results published in paper PMC3758111 (Planta medica, 2013).
Where two headings read alike, the source gives them in different places.

Tests used:
[1] = target: P-glycoprotein transporter (P-gp) (Homo sapiens, UniProt P08183); assay: P-gp assay: calcein-AM efflux in Caco-2 cells; format: cell-based; details: for Concentration that significantly inhibited P-gp activity: single compounds, calcein-AM, Caco-2, p < 0.05
[2] = incubation with NADPH and human liver microsomes; cited from earlier work
[3] = tested on: Caco-2 cells; assay: Cytotoxicity of pure compounds and extracts to Caco-2 cells; format: cell-based, human; details: vs control 0.3% v/v DMSO in DMEM, p < 0.05; tested 10–1000 μM
[4] = tested on: nitric oxide production in lipopolysaccharide-stimulated RAW264.7 macrophages; details: cited from earlier work
[5] = rats, oral, as pure compound or in E. purpurea root extract; cited from earlier work
[6] = tested on: Caco-2 cells; assay: Glucuronidation by Caco-2 cells; details: for Compartments in which glucuronide metabolites were found: pure compound, 25 μM applied apically
[7] = tested on: prostaglandin E (2) production in lipopolysaccharide-stimulated RAW264.7 macrophages; details: cited from earlier work
[8] = Transepithelial transfer across Caco-2 cell monolayers; format: in vitro ADME, human; details: human
[9] = tested on: Caco-2 cell monolayers; assay: as above; format: in vitro ADME, human; details: for Concentration dependency of uptake / Permeation rates at 37 °C compared with 4 °C: pure compounds; for Permeation rates at 37 °C compared with 4 °C: AP-BL
[10] = 3 h after oral 60% ethanolic extract of E. angustifolia containing 0.4–2 mg of Bauer alkamide 8 and 10; cited from earlier work
[11] = tested on: Caco-2 monolayers; details: extracted and isolated from E. pallida roots; cited from earlier work
[12] = tested on: multidrug transporter P-glycoprotein (P-gp); details: isolated from E. pallida; human proximal tubular kidney cells; cited from earlier work
[13] = 100 μM, 72 h, 37°C, RPMI 1640 medium; cited from earlier work
[14] = Caco-2, pH 7.4, Papp, After, single compound, 10–100 μM, subsequent to deconjugation with β-glucuronidase, n=9
[15] = Caco-2, pH 7.4, Papp, Before, single compound, 10–100 μM, prior to deconjugation with β-glucuronidase, n=9

Chain of P-glycoprotein transporter (P-gp) (P08183 whole entry): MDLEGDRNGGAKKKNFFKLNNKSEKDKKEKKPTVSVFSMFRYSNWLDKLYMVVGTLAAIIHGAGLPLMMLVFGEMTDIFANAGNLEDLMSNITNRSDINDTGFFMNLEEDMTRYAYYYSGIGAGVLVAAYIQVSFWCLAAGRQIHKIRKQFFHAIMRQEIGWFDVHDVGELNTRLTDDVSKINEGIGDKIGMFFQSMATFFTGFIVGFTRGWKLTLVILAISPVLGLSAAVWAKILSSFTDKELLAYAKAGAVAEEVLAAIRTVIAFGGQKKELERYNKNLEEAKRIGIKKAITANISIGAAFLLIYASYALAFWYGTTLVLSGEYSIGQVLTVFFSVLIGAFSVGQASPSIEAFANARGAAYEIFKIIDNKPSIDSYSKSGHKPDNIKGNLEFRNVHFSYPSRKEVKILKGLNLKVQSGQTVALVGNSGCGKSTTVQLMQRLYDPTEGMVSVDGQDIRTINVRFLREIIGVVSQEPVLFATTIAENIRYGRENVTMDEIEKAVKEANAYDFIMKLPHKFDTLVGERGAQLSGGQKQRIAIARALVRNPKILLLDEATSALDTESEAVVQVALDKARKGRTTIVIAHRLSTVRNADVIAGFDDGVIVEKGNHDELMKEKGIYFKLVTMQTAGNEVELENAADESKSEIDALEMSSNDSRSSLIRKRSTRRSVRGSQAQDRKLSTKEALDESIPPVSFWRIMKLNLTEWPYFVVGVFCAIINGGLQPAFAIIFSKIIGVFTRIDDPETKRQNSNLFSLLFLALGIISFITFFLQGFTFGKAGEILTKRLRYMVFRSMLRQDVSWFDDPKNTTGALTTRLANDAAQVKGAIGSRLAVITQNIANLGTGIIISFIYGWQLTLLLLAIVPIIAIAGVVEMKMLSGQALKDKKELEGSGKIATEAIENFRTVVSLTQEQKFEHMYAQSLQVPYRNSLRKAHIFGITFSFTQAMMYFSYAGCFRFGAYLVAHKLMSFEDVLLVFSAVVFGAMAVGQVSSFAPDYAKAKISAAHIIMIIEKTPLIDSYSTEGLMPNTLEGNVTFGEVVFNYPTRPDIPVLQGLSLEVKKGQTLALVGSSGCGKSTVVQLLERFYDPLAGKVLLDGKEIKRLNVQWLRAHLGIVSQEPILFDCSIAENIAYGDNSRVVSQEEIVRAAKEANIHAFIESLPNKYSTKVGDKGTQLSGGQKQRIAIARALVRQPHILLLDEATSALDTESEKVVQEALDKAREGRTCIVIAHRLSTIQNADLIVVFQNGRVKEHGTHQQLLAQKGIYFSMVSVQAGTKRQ

Concentration that significantly inhibited P-gp activity [1]	Compartments in which glucuronide metabolites were found [6]	Papp at 90 min [8, 14]	Papp at 90 min [8, 15]	Permeation rates at 37 °C compared with 4 °C [9]	Compound	Concentrations significantly cytotoxic to Caco-2 cells [3]	Nitric oxide production ([4]; 50 μM)	Prostaglandin E (2) production ([7]; 50 μM)	Concentration dependency of uptake ([9]; 10–100 μM)	Fraction of the ingested dose found in human blood [10]	further results
175 µM	only in the apical side	39.8 ± 13.4 ×10⁻⁶ cm/s	43.8 ± 11.2 ×10⁻⁶ cm/s	No significant differences	C/C=C\C=C/CC/C=C/C=C/C(=O)NCC(C)C [Bauer alkamide 8, (2E,4E,8Z,10Z)-N-isobutyldodeca-2,4,8,10-tetraenamide]	> 350 µM	significantly decrease	significantly decrease	increased linearly and exhibited non-saturable transport	about 5%	Metabolites formed [2]: Monohydroxylated, monoepoxidized, and N-dealkylated metabolites; Glucuronide or sulfate metabolite in urine [5]: no glucuronide or sulfate metabolite was present; Papp of Bauer alkamide 8 relative to Bauer alkamide 10 ([9]; Table 2): ~ 2.5 ×; Papp of Bauer alkamide 8 relative to Bauer alkamide 11 ([9]; Table 2): ~ 15 ×
205 µM	in the apical side and cell lysates	18.3 ± 5.9 ×10⁻⁶ cm/s	17.7 ± 8.8 ×10⁻⁶ cm/s	No significant differences	CCC/C=C\CC/C=C/C=C/C(=O)NCC(C)C [Bauer alkamide 10, (2E,4E,8Z)-N-isobutyldodeca-2,4,8-trienamide]				increased linearly and exhibited non-saturable transport	~1%	
230 µM	in the basolateral side and cell lysates		2.8 ± 1.5 ×10⁻⁶ cm/s	No significant differences	CCCCCCC/C=C/C=C/C(=O)NCC(C)C [Bauer alkamide 11, (2E,4E)-N-isobutyldodeca-2,4-dienamide]	> 460 µM	significantly decrease	significantly decrease	increased linearly and exhibited non-saturable transport		
					C/C=C\C#CC/C=C\CCCCCC(C)=O [Bauer ketone 24, pentadeca-(8Z, 13Z)-diene-11-yn-2-one]	> 990 µM					Effect on P-gp activity ([1]; single compound, tested concentrations 1–250 μM): not active; Nitric oxide production ([4]; 5 μM): significantly decrease; Metabolism when incubated with Bauer alkamides 8, 10 and 11 ([6]; 10–100 μM, data not shown): totally metabolized; Metabolism when administered as a single compound ([6]; Caco-2 cells): totally metabolized to more hydrophilic metabolites; Recovery relative to applied amount after β-glucuronidase treatment ([6]; contained in E. sanguinea and E. pallida extracts, basolaterally and in cell lysates): significantly increased; Prostaglandin E (2) production ([7]; 5 μM): significantly decrease; Papp at 90 min ([8]; Caco-2, pH 7.4, Papp from E. sanguinea or E. pallida extracts): 12 to 17 ×10⁻⁶ cm/s; Detection of parent compound apically, basolaterally or in cell lysates ([9]; applied as pure compound, 10–100 μM, any time point 15–90 min): not found; Recovered in the basolateral side ([9]; compound as contained in the two Echinacea species extracts): About 5%; Apparent permeability [11]: 10 ± 3 cm/s ×10^−6; Concentrations inhibiting P-gp [12]: 3 to 200 µg/mL; Hydroperoxide intermediate formation, of the parent compound [13]: about 25%
